Here are results for twelve molecules from patent US9278953B2, “Antagonists of prostaglandin EP3 receptor” (Pfizer Inc., priority 2013, dated 2016).

Chain of human EP3 receptor (P43115 whole entry): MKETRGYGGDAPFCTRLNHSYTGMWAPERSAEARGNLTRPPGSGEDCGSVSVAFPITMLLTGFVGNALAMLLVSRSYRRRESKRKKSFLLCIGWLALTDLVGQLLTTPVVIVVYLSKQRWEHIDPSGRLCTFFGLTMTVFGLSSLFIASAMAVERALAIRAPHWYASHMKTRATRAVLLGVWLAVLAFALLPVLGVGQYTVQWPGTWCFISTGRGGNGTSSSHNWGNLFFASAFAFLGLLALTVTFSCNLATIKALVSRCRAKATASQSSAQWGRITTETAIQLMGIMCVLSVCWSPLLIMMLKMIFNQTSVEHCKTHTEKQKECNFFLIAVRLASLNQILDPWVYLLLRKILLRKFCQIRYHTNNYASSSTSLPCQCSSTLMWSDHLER

The assay deals with human EP3 receptor (Homo sapiens (Human), UniProt P43115). The assay is described as follows: EP3 Radioligand SPA Binding Assay. The settings on record: [3H]-PGE2 displacement, Millipore EP3 Chem1 membranes; geometric mean Ki, calculated from IC50 by Cheng-Prusoff. As for the experimental part:
EP3 Radioligand SPA Binding Assay
Compound affinity was expressed as a […], defined as the concentration of compound required to decrease [^3H] PGE2 binding by 50% for a specific membrane batch at a given concentration of radioligand.
Test compounds were half log serially diluted in 100% DMSO (J. T. Baker #922401). 1 μL of each compound was added to appropriate wells of a 384-well plate (Matrix Cat #4322). Unlabeled PGE2 (Tocris Cat #2296) at a final concentration of 1 μM was used to determine non-specific binding. 1 μL of 100% DMSO (J. T. Baker #922401) was used to determine total binding. Millipore EP3 Chem1 membranes (prepared in-house from cell paste derived from the Millipore ChemiSCREEN™ Human Recombinant EP3 Prostanoid Receptor Calcium-Optimized Stable Cell Line (Millipore Cat #HTS092C. http://www.millipore.com/catalogue/item/hts092c)) were thawed and diluted in binding buffer (50 mM Hepes pH 7.4 (Lonza Cat #17-737), 5 mM MgCl2 (Sigma-M1028), and 0.1% BSA (Sigma A-7409)) to a final concentration of 1 μg/25 μL. 25 μL of diluted membranes were added to prepared compound plates. WGA coated PVT SPA Beads (Perkin Elmer Cat #RPNQ0060) were diluted in binding buffer to a concentration of 4 μg/ul, and 25 μL of the SPA bead mixture was then added to each well for a final assay concentration of 100 μg/well. [^3H]-PGE2 (Perkin Elmer Cat #NET428) was diluted in binding buffer to a concentration of […], and 25 μL was added to all wells for a final assay concentration of 1.125 nM. Plates were incubated for 30 minutes at r.t. (approximately 25° C.) with shaking. Radioactivity associated with each well was measured after a 10 hour incubation using a Wallac Trilux MicroBeta plate-based scintillation counter and a normalized protocol at 1 minute read/well. The Kd for [^3H]-PGE2 was determined by carrying out saturation binding, with data analysis by non-linear regression, fit to a one-site hyperbola (Graph Pad Prism). IC50 determinations were made from competition curves, analyzed with a proprietary curve fitting program (SIGHTS) and a 4-parameter logistic dose response equation. Ki values were calculated from IC50 values, using the Cheng-Prusoff equation.
Results are reported as geometric mean Ki values.
For `CCn1ncc2c(F)cc(-c3ccc([C@@]4(C)CCCNC4=O)c(=O)[nH]3)cc21` [Example 1, (R)-6-(1-ethyl-4-fluoro-1H-indazol-6-yl)-3-(3-methyl-2-oxopiperidin-3-yl)pyridin-2(1H)-one], the Ki is 2 nM.
Consider `Cn1ncc2c(Cl)cc(-c3ccc([C@@]4(C)CCCNC4=O)c(=O)[nH]3)cc21` [Example 2, (R)-6-(4-chloro-1-methyl-1H-indazol-6-yl)-3-(3-methyl-2-oxopiperidin-3-yl)pyridin-2(1H)-one], for which the Ki is 3.6 nM.
In the case of `CCn1ncc2c(C)cc(-c3ccc([C@@]4(C)CCCNC4=O)c(=O)[nH]3)cc21` [Example 3, (R)-6-(1-ethyl-4-methyl-1H-indazol-6-yl)-3-(3-methyl-2-oxopiperidin-3-yl)pyridin-2(1H)-one], the Ki is 9.5 nM.
Regarding `Cn1ccc2ccc(-c3ccc([C@@]4(C)CCCNC4=O)c(=O)[nH]3)cc21` [Example 4, (R)-6-(1-methyl-1H-indol-6-yl)-3-(3-methyl-2-oxopiperidin-3-yl)pyridin-2(1H)-one], the Ki was 11.2 nM.
As to `Cn1ccc2cc(-c3ccc([C@@]4(C)CCCNC4=O)c(=O)[nH]3)ccc21` [Example 5, (R)-6-(1-methyl-1H-indol-5-yl)-3-(3-methyl-2-oxopiperidin-3-yl)pyridin-2(1H)-one], the inhibition constant (Ki) is 12.2 nM.
Turning to `Cn1ccc2cc(-c3ccc([C@@]4(C)CCNC4=O)c(=O)[nH]3)ccc21` [Example 6, (R)-6-(1-methyl-1H-indol-5-yl)-3-(3-methyl-2-oxopyrrolidin-3-yl)pyridin-2(1H)-one], the Ki is 46 nM.
In the case of `Cn1cnc2cc(-c3ccc([C@@]4(C)CCCNC4=O)c(=O)[nH]3)cc(Cl)c21` [Example 7, (R)-6-(7-chloro-1-methyl-1H-benzo[d]imidazol-5-yl)-3-(3-methyl-2-oxopiperidin-3-yl)pyridin-2(1H)-one] it was 7.8 nM; in that of `Cn1ncc2c(Cl)cc(-c3ccc([C@@]4(C)CCNC4=O)c(=O)[nH]3)cc21` [Example 8, (R)-6-(4-chloro-1-methyl-1H-indazol-6-yl)-3-(3-methyl-2-oxopyrrolidin-3-yl)pyridin-2(1H)-one], 14.2 nM.
In the case of `Cn1ccc2cc(-c3ccc([C@@]4(C)CCNC4=O)c(=O)[nH]3)cc(F)c21` [Example 9, (R)-6-(7-fluoro-1-methyl-1H-indol-5-yl)-3-(3-methyl-2-oxopyrrolidin-3-yl)pyridin-2(1H)-one] it was 11.9 nM.
On to `CCn1ccc2ccc(-c3ccc([C@@]4(C)CCNC4=O)c(=O)[nH]3)cc21` [Example 10, (R)-6-(1-ethyl-1H-indol-6-yl)-3-(3-methyl-2-oxopyrrolidin-3-yl)pyridin-2(1H)-one], for which the Ki is 19.9 nM.
As to `Cc1cc(-c2ccc([C@@]3(C)CCCNC3=O)c(=O)[nH]2)cc2c1cnn2C` [Example 12, (R)-6-(1,4-dimethyl-1H-indazol-6-yl)-3-(3-methyl-2-oxopiperidin-3-yl)pyridin-2(1H)-one], the Ki was 25 nM.
On to `C[C@]1(c2ccc(-c3cc(F)c4[nH]nc(C5CC5)c4c3)[nH]c2=O)CCCNC1=O` [Example 14, (R)-6-(3-cyclopropyl-7-fluoro-1H-indazol-5-yl)-3-(3-methyl-2-oxopiperidin-3-yl)pyridin-2(1H)-one], for which the Ki is 29.2 nM.
